Reference: paper PMC9268552, “Synthesis of Pyrimidine Conjugates with 4-(6-Amino-hexanoyl)-7,8-difluoro-3,4-dihydro-3-methyl-2H-[1,4]benzoxazine and Evaluation of Their Antiviral Activity” (Molecules, 2022)
Where “and” joins values, the source holds several entries; their conditions need not be identical. Identical values can stand only once. Like-named read-outs stand apart in the source and are kept apart here.

How the values were obtained:
[1] = tested on: influenza virus A/Puerto Rico/8/34 (H1N1); conditions: influenza A/Puerto Rico/8/34 (H1N1); MDCK cells
[2] = in vitro; conditions: dog
[3] = tested on: influenza virus A/Puerto Rico/8/34 (H1N1); test: organism not typed; conditions: MDCK, read-out: IC50 (50% inhibition of virus-induced CPE)
[4] = Cytotoxicity in Vero E6 cells (Trypan blue exclusion assay); conditions: African green monkey
Description: (§1) The anti-herpesvirus activity of the synthesized compounds 5a–e was studied against the reference strain HSV-1/L2 and the acyclovir-resistant strain HSV-1/L2/R in the Vero E6 cells (Table 1) by suppressing the virus-induced cytopathogenic effect (CPE) as described previously. Acyclovir, Foscarnet (sodium phosphonoformate hexahydrate), a drug of choice in clinical practice in case of inefficiency of acyclovir and related compounds, including cases of drug resistance, and Ribavirin, were used as reference drugs. To assess the cytotoxicity of the studied compounds, the percentage of viable and non-viable cells was determined using Trypan blue exclusion assay.

[5] = tested on: HSV-1/L2; test: Suppression of virus-induced cytopathogenic effect (CPE), reference strain HSV-1/L2 in Vero E6 cells; conditions: for IC50: Human alphaherpesvirus 1, Vero C1008, read-out: IC50 (50% inhibition of virus-induced CPE)
Description: as §1

[6] = tested on: HSV-1/L2/R; test: microbe, parasite or virus in culture; conditions: for SI (CC50/IC50): HSV-1/L2/R (acyclovir-resistant), Vero E6 cells; for IC50: Human alphaherpesvirus 1, Vero C1008, read-out: IC50 (50% inhibition of virus-induced CPE)
Description: as §1

[7] = tested on: Vero E6 cells; conditions: read-out: CC50 ± SD, data for comparison, ref [27]; cited from earlier work
[8] = tested on: HSV-1/L2; conditions: cited from earlier work
[9] = tested on: HSV-1/L2/R; conditions: HSV-1/L2/R (acyclovir-resistant); Vero E6 cells; data for comparison; ref [27]; cited from earlier work
[10] = tested on: MDCK cells; conditions: read-out: CC50 ± SD, data for comparison, ref [31]; cited from earlier work
[11] = tested on: influenza virus A/Puerto Rico/8/34 (H1N1); conditions: influenza A/Puerto Rico/8/34 (H1N1), MDCK cells, data for comparison, ref [31], cited from earlier work

| SMILES | SI (CC50/IC50) [1] | CC50 [2] [µM] | IC50 [3] [µM] | CC50 [4] [µM] | SI (CC50/IC50) ([5]; HSV-1/L2, Vero E6 cells) | IC50 [5] [µM] | SI (CC50/IC50) [6] | IC50 [6] [µM] | melting point [°C] | other results |
| --- | --- | --- | --- | --- | --- | --- | --- | --- | --- | --- |
| CCC(CC)O[C@@H]1C=C(C(=O)O)C[C@H](N)[C@H]1NC(C)=O [Oseltamivir carboxylate, reference compound] | >667 | > 200 | 0.3 | – | – | – | – | – | – | – |
| C[C@@H]1COc2c(ccc(F)c2F)N1C(=O)CCCCCNc1ncnc2[nH]ccc12.C[C@@H]1COc2c(ccc(F)c2F)N1C(=O)CCCCCNc1ncnc2[nH]ccc12.O (racemic) [(RS)-5e, (RS)-7,8-Difluoro-3,4-dihydro-3-methyl-4-[6-(7H-pyrrolo[2,3-d]pyrimidin-4-yl)aminohexanoyl]-2H-[1,4]benzoxazine Hemihydrate] | 1 | 86 ± 4 | > 80 | 17.6 ± 0.85 | <1 | 18.6 | <1 | 18.6 | – | – |
| C[C@@H]1COc2c(ccc(F)c2F)N1C(=O)CCCCCNc1ccnc(N)n1.C[C@@H]1COc2c(ccc(F)c2F)N1C(=O)CCCCCNc1ccnc(N)n1.O.O.O (racemic) [(RS)-5a, (RS)-4-[6-(2-Aminopyrimidin-4-yl)aminohexanoyl]-7,8-difluoro-3,4-dihydro-3-methyl-2H-[1,4]benzoxazine Sesquihydrate] | >1 | 11 ± 1 | 8 ± 1 | 151 ± 8.36 | 8 and 8.1 | 18.6 | 8 | 18.6 | – | – |
| NC(=O)c1ncn([C@@H]2O[C@H](CO)[C@@H](O)[C@H]2O)n1 [Ribavirin, reference compound] | – | – | – | > 4100 | – | 1020 | >4 | 1020 | – | SI (CC50/IC50) [5]: >4 |
| CC1COc2c(ccc(F)c2F)N1C(=O)CCCCCNc1ncccn1 (racemic) [(RS)-5d, (RS)-7,8-Difluoro-3,4-dihydro-3-methyl-4-[6-(pyrimidin-2-yl)aminohexanoyl]-2H-[1,4]benzoxazine] | – | 257 ± 12 | > 88 | 505 ± 17.7 | 1.7 | 297 | <2 | 297 | 106 to 108 | – |
| Nc1nc2c(ncn2COCCO)c(=O)[nH]1 [Acyclovir, reference compound] | – | – | – | > 444 | – | 1.73 | 1 | > 444 | – | SI (CC50/IC50) [5]: >256 |
| C[C@@H]1COc2c(ccc(F)c2F)N1C(=O)CCCCCNc1ccnc(N)n1.C[C@@H]1COc2c(ccc(F)c2F)N1C(=O)CCCCCNc1ccnc(N)n1.O.O.O (racemic) (hydrate or solvate) [(RS)-5a, (RS)-4-[6-(2-Aminopyrimidin-4-yl)aminohexanoyl]-7,8-difluoro-3,4-dihydro-3-methyl-2H-[1,4]benzoxazine Sesquihydrate] | – | – | – | – | – | – | – | – | 59 to 60 | – |
| CC1COc2c(ccc(F)c2F)N1C(=O)CCCCCNc1cc(Cl)nc(N)n1 (racemic) [(RS)-5b, (RS)-4-[6-(2-Amino-6-chloropyrimidin-4-yl)aminohexanoyl]-7,8-difluoro-3,4-dihydro-3-methyl-2H-[1,4]benzoxazine] | <8 | 705 ± 42 | 92 ± 11 | 275 ± 4.3 | 3.7 | 73.4 | <4 | 73.4 | 92 to 94 | – |
| C[C@H]1COc2c(ccc(F)c2F)N1C(=O)CCCCCNc1ccnc(N)n1.O [(S)-5a, (S)-4-[6-(2-Aminopyrimidin-4-yl)aminohexanoyl]-7,8-difluoro-3,4-dihydro-3-methyl-2H-[1,4]benzoxazine Hydrate] | >3 | 23 ± 1.2 | 7 ± 1 | 34.6 ± 0.88 | 3.7 | 9.27 | <4 | 9.27 | – | – |
| CC1COc2c(ccc(F)c2F)N1C(=O)CCCCCNc1cc(Cl)ncn1 (racemic) [(RS)-5c, (RS)-4-[6-(6-Chloropyrimidin-4-yl)aminohexanoyl]-7,8-difluoro-3,4-dihydro-3-methyl-2H-[1,4]benzoxazine] | 1 | 9 ± 1 | > 8 | > 304 | >2.0 | 148 | 2 | 152 | 101 to 103 | – |
| C[C@@H]1COc2c(ccc(F)c2F)N1C(=O)CCCCCNc1ncnc2[nH]ccc12.C[C@@H]1COc2c(ccc(F)c2F)N1C(=O)CCCCCNc1ncnc2[nH]ccc12.O (racemic) (hydrate or solvate) [(RS)-5e, (RS)-7,8-Difluoro-3,4-dihydro-3-methyl-4-[6-(7H-pyrrolo[2,3-d]pyrimidin-4-yl)aminohexanoyl]-2H-[1,4]benzoxazine Hemihydrate] | – | – | – | – | – | – | – | – | 86 to 88 | – |
| C[C@H]1COc2c(ccc(F)c2F)N1C(=O)CCCCCNc1ncnc2[nH]ccc12 [(S)-5e, (3S)-7,8-Difluoro-3,4-dihydro-3-methyl-4-[6-(7H-pyrrolo[2,3-d]pyrimidin-4-yl)aminohexanoyl]-2H-[1,4]benzoxazine] | <2 | 47 ± 3 | > 26 | 469 ± 10.8 | 6 and 6.3 | 74.2 | 6 | 75.2 | 87 to 89 | – |
| O=C(O)P(=O)(O)O [Foscarnet, sodium phosphonoformate hexahydrate, reference compound] | – | – | – | > 417 | – | 104 | >4 | 104 | – | SI (CC50/IC50) [5]: >4 |
| C[C@H]1COc2c(ccc(F)c2F)N1C(=O)CCCCCNc1ccnc(N)n1.O (hydrate or solvate) [(S)-5a, (S)-4-[6-(2-Aminopyrimidin-4-yl)aminohexanoyl]-7,8-difluoro-3,4-dihydro-3-methyl-2H-[1,4]benzoxazine Hydrate] | – | – | – | – | – | – | – | – | 78 to 80 | – |
| C[C@H]1COc2c(ccc(F)c2F)N1C(=O)CCCCCNc1ncnc2[nH]cnc12 [(S)-1] | – | – | – | – | – | – | – | – | – | CC50 [7]: 293 ± 15.5 µM; SI (CC50/IC50) ([8]; Vero E6 cells, data for comparison, ref [27]): 64; IC50 ([8]; read-out: IC50 (50% inhibition of virus-induced CPE), Vero E6 cells, data for comparison, ref [27]): 4.6 µM; SI (CC50/IC50) [9]: 64 ^1; CC50 [10]: 24 ± 1 µM; SI (CC50/IC50) [11]: >2 ^1; IC50 ([11]; read-out: IC50 (50% inhibition of virus-induced CPE)): > 10 µM |
